In patent US20070099927A1, “Aminoalkyl-pyrazinones and-pyridones as thrombin inhibitors” (priority 2003, published 2007):

The molecules below were run against thrombin (Homo sapiens, UniProt P00734) (assay: Ki determinations thrombin, fluorogenic substrate Tosyl-GPR-AMC). Details: 20° C., thrombin 100 pM, Tosyl-GPR-AMC 20 μM, HBS pH 7.4; Ki class.
Type: biochemical
Experimental: The Ki determinations were carried out at 20° C. with the fluorogenic substrate Tosyl-GPR-AMC (Bachem, Heidelberg, Germany; λexc=370 nm, λem=450 nm) at a thrombin concentration of 100 pM in HBS pH 7.4. The substrate was added to a final concentration of 20 μM in a total assay volume of 100 μl. The enzymatic reaction was started by addition of substrate. The emission at 450 nm was monitored in 1 minute intervals for 10 minutes using a polarstar reader (BMG Laboratories, Offenburg, Germany). Initial velocities of the control and the inhibited reactions (vo and vi) were estimated in FU/min at different compound concentrations. The inhibition constants were calculated using the Michaelis-Menten equation for competitive inhibition.

| Compound | Ki [µM] |
| --- | --- |
| Cc1nc(N)ccc1CNCCn1c(Cl)cnc(NCC(F)(F)c2ccccn2)c1=O [Example 52] | 0.03 to 0.2 |
| Cc1cnc(NCCC2CCCCN2C)c(=O)n1CCNCc1n[nH]c2ccc(Cl)cc12 (single isomer, unassigned) [95 (E2), 1-{2-[(5-Chloro-1H-indazol-3-ylmethyl)-amino]-ethyl}-6-methyl-3-[2-(1-methyl-piperidin-2-yl)-ethylamino]-1H-pyrazin-2-one] | < 0.005 |
| NC(=O)CN1CCCCC1CCNc1ncc(Cl)n(CCNCc2n[nH]c3ccc(Cl)cc23)c1=O (stereo not shown) [Example 96, 2-{2-[2-(5-Chloro-4-{2-[(5-chloro-1H-indazol-3-ylmethyl)amino]-ethyl}-3-oxo-3,4-dihydro-pyrazin-2-ylamino)-ethyl]-piperidin-1-yl}-acetamide] | 0.005 to 0.03 |
| Cc1cnc(NCCNc2ccccn2)c(=O)n1CCNCc1cccc(Cl)c1 [Example 56] | 0.03 to 0.2 |
| Cc1cnc(NCCC2CCCCN2C)c(=O)n1CCNCc1n[nH]c2ccc(Cl)cc12 (single isomer, unassigned) [95 (E1), 1-{2-[(5-Chloro-1H-indazol-3-ylmethyl)-amino]-ethyl}-6-methyl-3-[2-(1-methyl-piperidin-2-yl)-ethylamino]-1H-pyrazin-2-one] | < 0.005 |
| O=c1c(NCC(F)(F)c2cccc[n+]2[O-])ncc(Cl)n1CCNCCc1cccc(Cl)c1 [Example 83] | < 0.005 |
| O=c1c(NCC(F)(F)c2cccc[n+]2[O-])ncc(Cl)n1CCNCc1n[nH]c2ccc(Cl)cc12 [Example 82] | < 0.005 |
| O=c1c(NCCc2ccccn2)ncc(Cl)n1CCNCc1n[nH]c2ccc(Cl)cc12 [Example 92] | < 0.005 |
| O=c1c(NCCC2CCCCN2)ncc(Cl)n1CCNCc1n[nH]c2ccc(Cl)cc12 (single isomer, unassigned) [101 (E2), 6-Chloro-1-{2-[(5-chloro-1H-indazol-3-ylmethyl)-amino]-ethyl}-3-(2-piperidin-2-yl-ethylamino)-1H-pyrazin-2-one] | < 0.005 |
| Cc1cnc(NCCC2CCCCN2)c(=O)n1CCNCc1cccc(Cl)c1 (stereo not shown) [Example 102] | 0.005 to 0.03 |
| Cc1cnc(NC(Cc2ccccc2)C(N)=O)c(=O)n1CCNCCc1cccc(Cl)c1 (stereo not shown) [Example 59] | 0.03 to 0.2 |
| O=c1c(NCC(F)(F)c2ccccn2)ncc(Cl)n1CCNCc1n[nH]c2ccc(Cl)cc12 [Example 74] | < 0.005 |
| Cc1cnc(NCC(F)(F)C2CCCCN2)c(=O)n1CCNCc1n[nH]c2ccc(Cl)cc12 (single isomer, unassigned) [85 (E1)] | < 0.005 |
| O=C(O)CN1CCCCC1CCNc1ncc(Cl)n(CCNCc2n[nH]c3ccc(Cl)cc23)c1=O (stereo not shown) [Example 97, {2-[2-(5-Chloro-4-{2-[(5-chloro-1H-indazol-3-ylmethyl)-amino]-ethyl}-3-oxo-3,4-dihydro-pyrazin-2-ylamino)-ethyl]-piperidin-1-yl}acetic acid] | < 0.005 |
| Cc1nc(N)ccc1CNCCn1c(Cl)cnc(NCC(F)(F)c2cccc[n+]2[O-])c1=O [Example 84] | 0.005 to 0.03 |
| Cc1cnc(NCCc2ccccn2)c(=O)n1CCNCCc1nc2ccc(Cl)cc2[nH]1 [Example 99] | 0.03 to 0.2 |
